Results as given in article PMC12380353, “MK-8527 is a novel inhibitor of HIV-1 reverse transcriptase translocation with potential for extended-duration dosing” (PLOS Biology, 2025).

Key:
[1] = system: HIV-1; test: Multicycle antiviral assay in MT4-GFP cells; type: cell-based; settings: 10% NHS
Method: Compounds were evaluated for their ability to prevent HIV-1 infection in MT4-GFP cells as described in Diamond, and colleagues. HIV-1 replication was monitored using the MT4-gag-GFP clone D3, and MT4 cells with a GFP reporter gene, the expression of which is dependent on the HIV-1 expressed proteins tat and rev. […] Proviral variants used for these studies were generated by site-directed mutagenesis in the WT R8 proviral plasmid. Virus was produced by transfection in 293T cells.
Briefly, MT4-GFP cells were cultured overnight with the appropriate HIV-1 variant at an approximate multiplicity of infection of 0.01. After approximately 19 h of infection, the cells were washed and resuspended in assay media containing 10% normal human serum (NHS) before being added to 384-well compound plates containing 10-point serial 3-fold dilutions of compound. Controls included no inhibitor (dimethyl sulfoxide [DMSO] only) and a combination of 3 antiviral agents, efavirenz, indinavir, and an integrase strand transfer inhibitor, L-002254051, at final concentrations of 4 µM each. The infected or treated cells were cultured at 37 °C, 5% CO2, and 90% humidity until evaluation of infection was conducted at approximately 48 and 72 h post-infection by counting the number of GFP cells in each well using an Acumen eX3 scanner (SPT Labtech; Melbourn, UK). The reproductive ratio, R, was calculated by dividing the number of infected cells at 72 h by the number at 48 h post-infection. The percentage inhibition caused by a test compound was calculated by the following formula:
inhibition = [1−(Rtest compound − Rpositive control)]/(RDMSO only − Rpositive control) × 100%\]
The dose–response curves of each test compound were plotted as percentage inhibition versus the test concentration.

[2] = system: HIV-1; test: Single-cycle antiviral assay in PBMCs; type: cell-based
Method: To evaluate the ability of inhibitors to prevent HIV-1 infection in primary cells, human PBMCs obtained from Biological Specialty Corporation (Colmar, PA, USA) were used to assess antiviral activity. The proviral variants used for these studies were generated by site-directed mutagenesis in a proviral vector derived from NL43 [52] that encodes GFP (pNLG1-P2A-GFP). Virus was produced by transfection in 293T cells.
PBMCs were activated with phytohemagglutinin (PHA) at 5 μg/mL in Roswell Park Memorial Institute (RPMI) 1640 medium containing 10% heat-inactivated fetal bovine serum (FBS) for 2–3 days. Compound plates were prepared by dispensing compounds dissolved in DMSO into 384-well poly-d-lysine-coated plates (0.2 μL per well) using an Echo acoustic dispenser (Labcyte; San Jose, CA, USA). Each compound was tested in a 10-point serial 3-fold dilution (typical final concentrations: 5,000 to 0.1 nM). Controls included no inhibitor (DMSO only) and a combination of 3 antiviral agents, efavirenz, indinavir, and the integrase strand transfer inhibitor, L-002254051, at final concentrations of 4 μM each. PHA-activated human PBMCs were washed and resuspended in RPMI 1640 containing 10% NHS and 30 units per mL of interleukin-2 (IL-2) at 6 × 10^5 cells per mL. PBMCs were added to the compound plates and cultured for 24 h at 37 °C, 5% CO2, and 90% humidity. The appropriate HIV-1 variant was added to the PBMCs and cultured at 37 °C, 5% CO2, and 90% humidity for an additional 24 h.
HIV-1–infected cells were quantified by counting the number of GFP cells in each well using an Acumen eX3 scanner (SPT Labtech; Melbourn, UK).

[3] = system: HIV-1; test: microbe, parasite or virus in culture; settings: Human immunodeficiency virus 1, PBMC
Method: IC50 values were determined, and a persistence ratio was calculated for each compound. GFP, green fluorescent protein; hpi, hours post-infection; IC50, half maximal inhibitory concentration.
Assay media in each well were then evacuated and the cells resuspended using the gentle setting on the BlueWasher (BlueCatBio; Lebanon, NH, USA). Centrifugation and wash steps were repeated to ensure removal of extracellular compound.
MT4-GFP cells were infected with WT R8 virus, and PBMCs were infected with pNLG1-P2A-GFP. […] IC50 values were determined by nonlinear 4-parameter curve fitting of the data. A persistence ratio was calculated for each compound by dividing the IC50 from variable B (IC50B) by the IC50 from variable A (IC50A).

[4] = system: panel of unrelated viruses; settings: all other viruses of the panel, up to highest concentration tested, 50 µM
[5] = system: HIV-1; test: microbe, parasite or virus in culture
[6] = CellTiter-Glo (CTG) cytotoxicity in MT4-GFP cells; settings: human
[7] = target: T1, HIV RT (Human immunodeficiency virus type 1 group M subtype B, UniProt P04585); test: Iron footprinting assay of RT translocation state; type: biochemical
T1 construct: HIV RT (final concentration, 1,200 nM)
Method: The translocation state of RT was assessed with a site-specific iron footprinting assay adapted from previous work. Primer and template used for this assay are described in Fig 7A. The presence of Fe^2+ ions in the reaction generated hydroxyl radicals that cleaved the DNA template in a site-specific manner at the nucleotide closest to the RNase H active site. In addition to an RT inhibitor in the reaction, dTTP, the subsequent dNTP, was provided in dose titration to force the translocation of the 3′-primer terminus from the pre-translocation N-site to the post-translocation P-site.
(final concentration, 1 µM), or ddATP (final concentration, 5 µM), Td43/Pd30 pre-annealed primer and template (final concentration, 200 nM based on Cy3-labeled Td43 concentration), and dTTP titrated at various concentrations. All reagent stocks were in a base assay buffer consisting of 120 mM Tris pH 7.5, 20 mM NaCl, and 6 mM MgCl2 in nuclease-free water. […] The reaction was then heated to 37 °C for 5 min before quenching 1:1 with gel-loading dye followed by heating at 95 °C for 10 min. Samples were stored at −20 °C until being resolved by polyacrylamide gel electrophoresis with 7 M urea.

| Compound | IC50 ([1]; Human immunodeficiency virus 1, WT HIV-1, multicycle assay) [nM] | MT4-GFP IC50 ([1]; WT HIV-1, multicycle assay) | IC50 ([1]; WT HIV-1, multicycle assay, listed as MK-8527) [nM] | PBMC IC50 ([2]; HIV-1, single-cycle assay, human PBMCs, 10% NHS) | IC50 ([2]; Human immunodeficiency virus 1, PBMC, read-out: PBMC IC50, HIV-1, single-cycle assay, human PBMCs, 10% NHS) [nM] | IC50 ([2]; read-out: PBMC IC50, HIV-1, single-cycle assay, human PBMCs, 10% NHS, listed as MK-8527) [nM] | IC50 ([3]; 48 h, read-out: Persistence assay IC50B, PBMCs) [nM] | IC50 ([3]; read-out: Persistence assay IC50A, PBMCs) [nM] | Antiviral activity or cytotoxicity [4] | IC50 ([5]; Human immunodeficiency virus 1, 48 h, read-out: Persistence assay IC50B, MT4-GFP cells) [nM] | IC50 ([5]; Human immunodeficiency virus 1, read-out: Persistence assay IC50A, MT4-GFP cells) [nM] | CC50 [6] [nM] | Translocation state of RT ([7]; 1 µM MK-8527-TP or ISL-TP, 5 µM ddATP, absence or presence of dTTP) | dTTP concentration above which post-translocation state products (−17) began accumulating ([7]; 1 µM inhibitor) [µM] |
| --- | --- | --- | --- | --- | --- | --- | --- | --- | --- | --- | --- | --- | --- | --- |
| C#C[C@]1(CO)O[C@@H](n2ccc3c(N)nc(Cl)nc32)C[C@@H]1O [Compound 12, (2R,3S,5R)-5-(4-amino-2-chloro-7H-pyrrolo[2,3-d]pyrimidin-7-yl)-2-ethynyl-2-(hydroxymethyl)tetrahydrofuran-3-ol] | 3.4 | single-digit nanomolar potency | 3.37 ± 1 | subnanomolar potency | 0.2 | 0.21 ± 0.09 | 18.1 ± 4.8 | 1.2 ± 0.2 | did not display antiviral activity or cytotoxicity | 223 ± 104 | 7.2 ± 2.3 | > 42000 | – | – |
| C#C[C@]1(COP(=O)(O)OP(=O)(O)OP(=O)(O)O)O[C@@H](n2ccc3c(N)nc(Cl)nc32)C[C@@H]1O [MK-8527-TP] | – | – | – | – | – | – | – | – | – | – | – | – | remained in a pre-translocation (−18) state | > 6.2 |
